Values joined by “and” are separate entries in the source; they are usually repeats but may differ in a detail not shown here. Equal values may be shown once. Read-outs that look alike come from different tables or passages of the source.
How the values were obtained:
[1] = Preliminary acute toxicity test in mice; assay type: in vivo; conditions: groups of two male NMRI mice
Description: A preliminary acute toxicity test was carried out in mice. Groups of two male mice of the NMRI strain weighing 20-21 g received the test compound in doses of 62.5-500 mg/kg ip. The compound was given as a solution in 0.9% NaCl. The number of animals dead 24 hours after injection was as follows.

[2] = Acid stability test in 0.1 N HCl (t.l.c. estimate of decomposition products); assay type: physicochemical; conditions: incubated in 0.1 N HCl at 37° C. for 2 hours; 100 μg compound applied
Description: The acid stability was investigated by dissolving 5 mg of each compound in 1 ml of 0.1 N HCl in a test tube. For use as references 0.2 ml of each solution was withdrawn, immediately treated with 0.2 ml of a 10% aqueous solution of NaHCO3 and frozen. The remaining 0.8 ml of each solution was incubated at 37° C. for 2 hours. After incubation, 0.8 ml of a 10% aqueous solution of NaHCO3 was added to each solution and the solutions were frozen. The incubated compounds and the reference compounds were lyophilized to dryness and redissolved in distilled H2 O, 0.2 ml and 1.0 ml respectively, for each reference solution and incubated solution. The solutions were applied to silica gel (Merck PF254, 20×20 cm) and polyethylene imine (Macherey-Nagel PEI, 20×20 cm) thin layer plates. A total of 20 μl of the reference solutions (100 μg compound) and 25 μl of the incubated solutions ([…]) were applied. To each plate was also added, as references, solutions of phosphorous acid (H2 HPO3) (5 and 20 μg) and of trisodiumphosphonoformate (5 and 20 μg). (Decomposition of phosphonoformic acid at low pH produces phosphorous acid).
The silica gel plates were prepared in duplicate and eluted with a solution composed of methanol--10% aq ammonia--trichloroacetic acid--water (50--15--5--3, v/v) and the polyethylene imine plates were eluted with a 1M aq lithium chloride solution. […]

[3] = test system: cutaneous herpes simplex type 1 infections; test: Inhibition of cutaneous herpes on guinea pigs; assay type: in vivo, guinea pig; conditions: scale 0 to 3
Excerpt: The effect of cutaneous herpes simplex type 1 infections have been measured in a guinea pig model described by Hubler et al. J. Invest Dermatol 69 (1974) 92. […] The appearance of an infected treated area and a similar infected untreated (only isopropanol-glycerol-water) area was scored daily on a scale from 0 to 3. The total effect is judged from the score at day 5.

[4] = test system: influenza (WSN Wilson Smith Neurotropic type A); test: Inhibition of influenza WSN plaque on MDCK monolayers; assay type: cell-based, influenza virus
[5] = test system: herpes simplex type 1; test: Plaque reduction assay for herpes simplex type 1 on GMK monolayers; assay type: cell-based; conditions: for inhibition at 400 µM: Human alphaherpesvirus 1, 400 μM test compound; for inhibition at 500 µM: Human alphaherpesvirus 1, 500 μM test compound
Description: The plaque reduction assay for herpes simplex type 1 was performed on GMK (Green Monkey Kidney) cells as described by Ejereito et al. J. Gen. Virol. 2 (1968) 357. Monolayers on 5 cm petri dishes were used and after virus adsorption the test compound was added in the medium.
The plaque reduction assay for herpes simplex type 1 was performed on GMK (Green Monkey Kidney) cells as described by Ejereito et al. J. Gen. Virol 2 (1968) 357. Monolayers on 5 cm petri dishes were used and after virus adsorption the test compound was added in the medium.
Inhibition of herpes simplex type 1 plaque on GMK monolayers

[6] = test system: influenza Victoria; test: Inhibition of influenza Victoria plaque on MDCK monolayers; assay type: cell-based, influenza virus
[7] = topical 2% solution, start of treatment 24 hours after infection
[8] = treated in 0.1% Tween 80-10% aqueous glycerol
[9] = topical 2% solution in isopropanol-glycerol-water twice daily for 3 days starting 4 hours after infection
[10] = treated in 0.1% Tween 80-10% aqueous glycerol, start of treatment 24 hours after infection
[11] = Day 1, 10 μmol intraperitoneally, urine of two NMRI male mice
[12] = Day 2, 10 μmol intraperitoneally, urine of two NMRI male mice
[13] = Day 3, 10 μmol intraperitoneally, urine of two NMRI male mice

Compound: O=C(Oc1ccccc1)P(=O)(O)Oc1ccccc1
- number of animals dead 24 hours after injection ([1]; 62.5 mg/kg ip): 0/2
- number of animals dead 24 hours after injection ([1]; 125 mg/kg ip): 0/2
- number of animals dead 24 hours after injection ([1]; 250 mg/kg ip): 0/2
- number of animals dead 24 hours after injection ([1]; 500 mg/kg ip): 0/2

Compound: O=C(O)P(=O)(O)O [EHB 776, trisodium phosphonoformate]
- Estimated formation of phosphorous acid [2]: 20 µg

Compound: O=C(Oc1ccccc1)P(=O)(Oc1ccccc1)Oc1ccccc1 [VIS 040, Hydroxycarbonylphosphonic Acid Triphenyl Ester]
- Score at day 5, treated [3, 7]: 0
- Inhibition (%) ([4]; 100 μM test compound): 90%
- Inhibition (%) ([4]; 500 μM test compound): > 99%

Compound: O=C(O)P(=O)(O)Oc1ccccc1 [VIS 041, Phenyl disodium oxycarbonylphosphonate]
- Score at day 5, treated [3, 7]: 0
- Inhibition (%) ([4]; 500 μM test compound): > 99.9%
- Inhibition (%) ([5]; 10 μM test compound): ~ 50%
- Inhibition (%) ([5]; 40 μM test compound): > 90%
- Inhibition (%) ([5]; 100 μM test compound, 100 µM): > 99.9% and 99%
- Inhibition (%) ([5]; 500 μM test compound): > 99.9%

Compound: O=C(Oc1ccccc1)P(=O)([O-])Oc1ccccc1.[Na+] [VIS 043, Sodium phenyl phenoxycarbonylphosphonate]
- Score at day 5, treated [3, 7]: 0
- Inhibition (%) ([4]; 20 μM test compound, 20 µM): 62% and 47%
- Inhibition (%) ([4]; 100 μM test compound, 100 µM): 84% and 90% and > 99.9%
- Inhibition (%) ([4]; 500 μM test compound): > 99.9%
- Inhibition (%) ([5]; 20 μM test compound): ~ 0%
- Inhibition (%) ([5]; 40 μM test compound): > 90.9%
- Inhibition (%) ([5]; 100 μM test compound, 100 µM): > 99.9% and > 99%
- Inhibition (%) ([5]; 500 μM test compound): > 99.9%

Compound: Cc1ccc(OP(=O)(Oc2ccc(C)cc2)C(=O)Oc2ccccc2)cc1 [VIS 056, Di-p-tolyl phenoxycarbonylphosphonate]
- Inhibition (%) ([6]; 200 μM test compound): 75%
- Inhibition (%) ([5]; 100 μM test compound): > 99%
- Inhibition (%) ([5]; 500 μM test compound): > 99%

Compound: COc1ccc(OP(=O)([O-])C(=O)Oc2ccccc2)cc1.[Na+] [VIS 058, Sodium p-methoxyphenyl phenoxycarbonylphosphonate]
- Inhibition (%) ([4]; 100 μM test compound): 84%
- Inhibition (%) ([4]; 500 μM test compound): > 99.9%
- Inhibition (%) ([5]; 10 μM test compound): ~ 50%
- Inhibition (%) ([5]; 40 μM test compound): > 90%
- Inhibition (%) ([5]; 100 μM test compound): 88%
- Inhibition (%) ([5]; 500 μM test compound): > 99.9%

Compound: Cc1ccc(OP(=O)(O)C(=O)O)cc1 [VIS 059, p-tolyl disodium oxycarbonylphosphonate]
- Score at day 5, treated [3, 8]: 1 and 2
- Inhibition (%) ([4]; 20 μM test compound, 20 µM): 58% and 36%
- Inhibition (%) ([4]; 500 μM test compound, 500 µM): > 99.9% and 91% and 92%
- Inhibition (%) ([5]; 5 μM test compound, 5 µM): 57% and > 90%
- Inhibition (%) ([5]; 20 μM test compound): 95%
- Inhibition (%) ([5]; 100 μM test compound): > 99.9%
- Inhibition (%) ([5]; 500 μM test compound): > 99.9%

Compound: O=C(Oc1ccccc1)P(=O)([O-])Oc1ccc(Cl)cc1.[Na+] [VIS 063, sodium p-chlorophenyl phenoxycarbonylphosphonate]
- Score at day 5, treated [3, 9]: 2 and 3
- Inhibition (%) ([4]; 100 μM test compound): 72%
- Inhibition (%) ([4]; 500 μM test compound): > 99.9%
- Inhibition (%) ([5]; 5 μM test compound): ~ 50%
- Inhibition (%) ([5]; 10 μM test compound): > 90%
- Inhibition (%) ([5]; 20 μM test compound): 69%
- Inhibition (%) ([5]; 100 μM test compound): > 99.9%
- Inhibition (%) ([5]; 500 μM test compound): > 99.9%

Compound: Cc1ccc(OP(=O)([O-])C(=O)Oc2ccccc2)cc1.[Na+] [VIS 065, sodium p-tolyl phenoxycarbonylphosphonate]
- Inhibition (%) ([6]; 200 μM test compound): 76%
- Inhibition (%) ([6]; 500 μM test compound): > 99%
- Inhibition (%) ([5]; 10 μM test compound): ~ 50%
- Inhibition (%) ([5]; 20 μM test compound): > 90%

Compound: O=C(O)P(=O)(O)Oc1ccc(Cl)cc1 [VIS 066, p-chlorophenyl disodium oxycarbonylphosphonate]
- Inhibition (%) ([4]; 100 μM test compound): 54%
- Inhibition (%) ([4]; 500 μM test compound): > 99.9%
- Inhibition (%) ([5]; 5 μM test compound, 5 µM): 89% and ~ 75%
- Inhibition (%) ([5]; 10 μM test compound): > 90%
- Inhibition (%) ([5]; 20 μM test compound): 98%
- Inhibition (%) ([5]; 100 μM test compound): > 99.9%
- Inhibition (%) ([5]; 500 μM test compound): > 99.9%

Compound: COc1ccc(OP(=O)(O)C(=O)O)cc1 [VIS 067, p-Methoxyphenyl disodium oxycarbonylphosphonate]
- Score at day 5, treated [3, 8]: 1
- Inhibition (%) ([4]; 100 μM test compound): 58%
- Inhibition (%) ([4]; 500 μM test compound, 500 µM): 73% and > 99.9%
- Inhibition (%) ([5]; 5 μM test compound): 57%
- Inhibition (%) ([5]; 20 μM test compound): 87%
- Inhibition (%) ([5]; 100 μM test compound): 99%
- Inhibition (%) ([5]; 500 μM test compound): > 99.9%

Compound: Cc1ccc(OC(=O)P(=O)([O-])[O-])cc1.[Na+].[Na+] [VIS 130, Disodium p-tolyloxycarbonylphosphonate]
- Score at day 5, treated [3, 10]: 1
- inhibition at 200 µM ([5]; Human alphaherpesvirus 1, 200 μM test compound): ~80%
- inhibition at 400 µM [5]: > 90%

Compound: O=C(Oc1ccc(Cl)c(Cl)c1)P(=O)(O)O [VIS 135, Disodium 3,4-dichlorophenoxycarbonylphosphonate]
- inhibition at 100 µM ([5]; Human alphaherpesvirus 1, 100 μM test compound): 85%

Compound: O=C(Oc1ccc(Cl)cc1)P(=O)([O-])[O-].[Na+].[Na+] [VIS 238, Disodium p-chlorophenoxycarbonylphosphonate]
- Score at day 5, treated [3, 10]: 1
- Inhibition (%) ([5]; 100 μM test compound, 100 µM): 52% and ~ 90%
- Inhibition (%) ([5]; 500 μM test compound, 500 µM): 99%
- inhibition at 500 µM [5]: 96%

Compound: COc1ccc(OC(=O)P(=O)([O-])[O-])cc1.[Na+].[Na+] [VIS 239, Disodium p-methoxyphenoxycarbonylphosphonate]
- Score at day 5, treated [3, 10]: 1
- Inhibition (%) ([5]; 500 μM test compound, 500 µM): 36% and 52% and 70%
- inhibition at 400 µM [5]: ~60%
- inhibition at 600 µM ([5]; Human alphaherpesvirus 1, 600 μM test compound): > 90%

Compound: CCOC(=O)c1ccc(OC(=O)P(=O)([O-])[O-])cc1.[Na+].[Na+] [VIS 242, Disodium p-(ethoxycarbonyl)phenoxycarbonylphosphonate]
- Score at day 5, treated [3, 10]: 1

Compound: O=C(Oc1ccccc1)P(=O)([O-])[O-].[Na+].[Na+] [VIS 412, Disodium phenoxycarbonylphosphonate]
- Score at day 5, treated [3, 9]: 0
- Score at day 5, treated [3, 7]: 0
- Inhibition (%) ([5]; 500 μM test compound, 500 µM): 88%
- inhibition at 60 µM ([5]; Human alphaherpesvirus 1, 60 μM test compound): ~50%
- inhibition at 500 µM [5]: 80%

Compound: O=C(O)P(=O)(O)Oc1ccc2c(c1)CCC2 [VIS 442, 5-Indanyl disodium oxycarbonylphosphonate]
- Score at day 5, treated [3, 10]: 1
- Inhibition (%) ([4]; 500 μM test compound): 94%
- Inhibition (%) ([5]; 10 μM test compound): > 90%
- Inhibition (%) ([5]; 500 μM test compound): > 99.9%

Compound: Cc1ccc(OC(=O)P(=O)(O)O)cc1 [drawing 119]
- Recovered phosphonoformic acid activity in urine [11]: 1.25 μmol phosphonoformic acid
- Recovered phosphonoformic acid activity in urine [12]: 0.25 μmol phosphonoformic acid
- Recovered phosphonoformic acid activity in urine [13]: 0.10 μmol phosphonoformic acid

Compound: O=C(O)P(=O)(O)Oc1ccccc1 [drawing 120]
- Recovered phosphonoformic acid activity in urine [11]: 1.00 μmol phosphonoformic acid
- Recovered phosphonoformic acid activity in urine [12]: 0.25 μmol phosphonoformic acid
- Recovered phosphonoformic acid activity in urine [13]: 0.25 μmol phosphonoformic acid

Compound: O=C(O)P(=O)(O)O [drawing 121, reference compound]
- Recovered phosphonoformic acid activity in urine (mouse, in vivo, ip): 1.25 μmol phosphonoformic acid

Compound: O=C(Oc1ccccc1)P(=O)(O)O [drawing 123]
- number of animals dead 24 hours after injection ([1]; 62.5 mg/kg ip): 0/2
- number of animals dead 24 hours after injection ([1]; 125 mg/kg ip): 0/2
- number of animals dead 24 hours after injection ([1]; 250 mg/kg ip): 0/2
- number of animals dead 24 hours after injection ([1]; 500 mg/kg ip): 0/2

Compound: O=C(O)P(=O)(O)Oc1ccccc1 [drawing 125]
- number of animals dead 24 hours after injection ([1]; 62.5 mg/kg ip): 0/2
- number of animals dead 24 hours after injection ([1]; 125 mg/kg ip): 0/2
- number of animals dead 24 hours after injection ([1]; 250 mg/kg ip): 0/2
- number of animals dead 24 hours after injection ([1]; 500 mg/kg ip): 0/2

Source: patent publication US4536400A, “Phosphonoformic acid esters” (priority 1977, dated 1985)
